Consider 54 compounds from patent publication US7932270B2 (Cytokinetics, Inc., priority 2006, dated 2011).

One may read the IC50 as the concentration that inhibits the measured activity by half.

The target of this assay is T1, chicken gizzard smooth muscle myosin subfragment-1 chemically crosslinked to cardiac or skeletal actin (Gallus gallus, UniProt P10587).
T1 construct: chicken gizzard smooth muscle myosin subfragment-1; from tissue; host or cells: chicken gizzard
T1 sequence (P02607 2-151): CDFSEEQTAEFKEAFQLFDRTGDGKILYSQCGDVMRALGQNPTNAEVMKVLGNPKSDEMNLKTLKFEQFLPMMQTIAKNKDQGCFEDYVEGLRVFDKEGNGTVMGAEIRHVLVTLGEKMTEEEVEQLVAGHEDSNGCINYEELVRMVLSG
T1 sequence (P10587 84-789): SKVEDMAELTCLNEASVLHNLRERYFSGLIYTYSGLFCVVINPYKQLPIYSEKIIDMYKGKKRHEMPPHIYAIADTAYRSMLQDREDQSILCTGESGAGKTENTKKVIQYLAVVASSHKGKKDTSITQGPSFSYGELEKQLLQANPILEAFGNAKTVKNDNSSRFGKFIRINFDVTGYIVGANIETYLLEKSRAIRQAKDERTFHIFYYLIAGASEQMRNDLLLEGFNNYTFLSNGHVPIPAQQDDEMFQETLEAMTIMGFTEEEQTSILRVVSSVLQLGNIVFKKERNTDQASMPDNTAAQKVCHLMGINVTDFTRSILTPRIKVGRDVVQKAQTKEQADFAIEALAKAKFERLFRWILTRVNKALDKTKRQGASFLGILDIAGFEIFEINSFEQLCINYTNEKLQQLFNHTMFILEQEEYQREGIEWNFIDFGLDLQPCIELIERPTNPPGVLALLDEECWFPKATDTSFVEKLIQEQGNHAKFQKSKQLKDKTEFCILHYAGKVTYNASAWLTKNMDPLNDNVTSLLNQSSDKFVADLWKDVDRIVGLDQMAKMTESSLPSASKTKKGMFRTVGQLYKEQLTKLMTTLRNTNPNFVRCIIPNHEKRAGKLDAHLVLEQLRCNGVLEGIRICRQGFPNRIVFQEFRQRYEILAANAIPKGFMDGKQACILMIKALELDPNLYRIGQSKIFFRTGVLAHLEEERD
In words: Smooth muscle myosin ATPase dose response assay (pyruvate kinase/horseradish peroxidase/pyruvate oxidase-coupled, amplex red fluorescence). The assay is classed as biochemical. The conditions noted are these: read-out: IC50 Arithmetic Mean. How it is done:
In Vitro Model of Dose Dependent Smooth Muscle Myosin ATPase Modulation
Screening assays were performed using a pyruvate kinase and lactate dehydrogenase-coupled ATPase assay containing the following reagents: Potassium PIPES (50 mM), MgCl2 (3 mM), KCl (100 mM), ATP (0.15 mM), DTT (1 mM), BSA (0.1 mg/ml), NADH (0.5 mM), PEP (1.5 mM), pyruvate kinase (4 U/ml), lactate dehydrogenase (8 U/ml), and antifoam (50 ppm) (concentrations expressed are final assay concentrations). The pH was adjusted to 6.80 at 22° C. by addition of potassium hydroxide. Lead optimization assays were performed with a more sensitive pyruvate kinase/horseradish peroxidase/pyruvate oxidase-coupled ATPase assay containing the following reagents: Potassium PIPES (12 mM), MgCl2 (2 mM), KCl (100 mM), ATP (0.15 mM), BSA (0.05 mg/ml), potassium phosphate (2 mM), amplex red (0.1 mM), PEP (0.1 mM), pyruvate kinase (4 U/ml), horseradish peroxidase (0.5 U/ml), pyruvate oxidase (0.5 U/ml), and antifoam (50 ppm) (concentrations expressed are final assay concentrations). The pH was adjusted to 7.00 at 22° C. by addition of potassium hydroxide.
The protein components specific to this assay are chicken gizzard smooth muscle myosin subfragment-1 that has been chemically crosslinked to either cardiac or skeletal actin using an excess of 1-Ethyl-3-[3-dimethylaminopropyl]carbodiimide hydrochloride and N-hydroxysuccinimide. The exact concentration of the crosslinked smooth muscle myosin in the assay is determined empirically, by titration to achieve a desired rate of ATP hydrolysis. The concentration varies between protein preparations due to variations in the fraction of active molecules in each preparation.
Compound dose response assays are performed by first preparing a dilution series of test compound, each with an assay mixture containing potassium PIPES, MgCl2, KCl, ATP, BSA, potassium phosphate, amplex red, PEP, crosslinked smooth muscle actomyosin (subfragment-1), antifoam, and water. The assay is started by adding an equal volume of solution containing potassium Pipes, MgCl2, KCl, BSA, potassium phosphate, pyruvate kinase, horseradish peroxidase, pyruvate oxidase, antifoam, and water. ATP hydrolysis is monitored by measuring the fluorescence of amplex red (excitation at 480 nm, emission at 615 nm). The resulting dose response curve is fit by the 4 parameter equation y=Bottom+((Top-Bottom)/(1+((IC50/X)^Hill))). The IC50 is defined as the concentration at which ATPase activity is midway between the top and bottom of the dose response curve.
As to `CC(C)(CNC(=O)c1ccc(-c2ccccc2C#N)nc1NCCc1cccc(F)c1)NC(=O)CNC(=O)OC(C)(C)C`, the half-inhibitory concentration (IC50) turned out to be 9570 nM.

As for `CC(C)(CNC(=O)c1ccc(-c2ccccc2C#N)nc1NCCc1cccc(F)c1)NC(=O)CN`, the IC50 was 320 nM.

In the case of `CC(C)(CNC(=O)c1ccc(-c2ccccc2C#N)nc1NCCc1cccc(F)c1)NC(=O)CCCNC(=O)OC(C)(C)C`, the IC50 is 194 nM.

As for `CC(C)(CNC(=O)c1ccc(-c2ccccc2C#N)nc1NCCc1cccc(F)c1)NC(=O)CCCN`, the IC50 amounted to 277 nM.

Take `N#Cc1ccccc1-c1ccc(C(=O)NCCCN2C(=O)CC[C@@H]2CN=[N+]=[N-])c(NCCc2cccc(F)c2)n1`: the IC50 is 5620 nM.

Regarding `N#Cc1ccccc1-c1ccc(C(=O)NCCCN2C(=O)CC[C@H]2CN=[N+]=[N-])c(NCCc2cccc(F)c2)n1`, the IC50 was 16600 nM.

Turning to `CN(C)C(n1cc(-c2ccc(C(=O)NC[C@H]3CCC(=O)N3CCCN)c(NCCc3cccc(F)c3)n2)cn1)=[N+](C)C`, the concentration for half-maximal inhibition (IC50) turned out to be 2130 nM.

On to `N#Cc1ccccc1-c1ccc(C(=O)NCC2CCCN2CCCN)c(NCCc2cccc(F)c2)n1` (stereo not drawn), for which the IC50 came to 3500 nM.

For the compound `C[C@@H](NC(=O)c1ccc(-c2ccccc2C#N)nc1NCCc1cccc(F)c1)C(N)=O`, the concentration for half-maximal inhibition (IC50) is 532 nM.

`C[C@H](CNC(=O)c1cc(F)c(-c2cn[nH]c2)nc1NCC(O)c1cccc(F)c1)NC(=O)CNC(=O)OC(C)(C)C` (stereo partly drawn): the IC50 stood at 14200 nM.

Regarding `C[C@H](CNC(=O)c1cc(F)c(-c2cnn(C)c2)nc1NCCc1cccc(F)c1)NC(=O)CNC(=O)OC(C)(C)C`, the IC50 was 1750 nM.

On to `C[C@H](CNC(=O)c1cc(F)c(-c2cnn(C)c2)nc1NCCc1cccc(F)c1)NC(=O)CCCNC(=O)OC(C)(C)C`, for which the IC50 was determined as 100 nM.

Regarding `C[C@H](CNC(=O)c1cc(F)c(-c2cnn(C)c2)nc1NCCc1cccc(F)c1)NC(=O)CN(C)C`, the IC50 was found to be 121 nM.

Regarding `C[C@H](CNC(=O)c1cc(F)c(-c2cnn(C)c2)nc1NCCc1cccc(F)c1)NC(=O)CCCN`, the IC50 turned out to be 116 nM.

Turning to `C[C@H](CNC(=O)c1cc(F)c(-c2cnn(C)c2)nc1NCCc1cccc(F)c1)NC(=O)[C@@H](N)CO`, the IC50 worked out at 115 nM.

As to `C[C@H](CNC(=O)c1cc(F)c(-c2cnn(C)c2)nc1NCCc1cccc(F)c1)NC(=O)C(C)(C)N`, the IC50 came out at 285 nM.

For the compound `C[C@H](CNC(=O)c1cc(F)c(-c2cnn(C)c2)nc1NCCc1cccc(F)c1)NC(=O)[C@H](C)N`, the 50% inhibitory concentration (IC50) came to 131 nM.

For the compound `CC(=O)N[C@H](C)CNC(=O)c1cc(F)c(-c2cnn(C)c2)nc1NCCc1cccc(F)c1`, the IC50 came out at 251 nM.

Regarding `C[C@H](CNC(=O)c1cc(F)c(-c2cnn(C)c2)nc1NCCc1cccc(F)c1)NC(=O)CN`, the IC50 amounted to 76 nM.

With `C[C@H](CNC(=O)c1cc(F)c(-c2cn[nH]c2)nc1NCCc1cccc(F)c1)NC(=O)CN`, the IC50 worked out at 122 nM.

For the compound `C[C@H](CNC(=O)c1cc(F)c(-c2cnn(C)c2)nc1NCCc1cccc(F)c1)NC(=O)[C@H](CO)NC(=O)OC(C)(C)C`, the IC50 stood at 2260 nM.

Consider `C[C@H](CNC(=O)c1cc(F)c(-c2cnn(C)c2)nc1NCCc1cccc(F)c1)NC(=O)CO`, for which the IC50 came to 197 nM.

`C[C@H](CNC(=O)c1cc(F)c(-c2cn[nH]c2)nc1NCCn1cccn1)NC(=O)CN`: the IC50 was found to be 4640 nM.

In the case of `C[C@H](CNC(=O)c1ccc(-c2ccccc2C#N)nc1NCCc1cccc(F)c1)NC(=O)CNC(=O)OC(C)(C)C`, the IC50 worked out at 2310 nM.

Turning to `C[C@H](CNC(=O)c1ccc(-c2ccccc2C#N)nc1NCCc1cccc(F)c1)N(C)C(=O)CCCNC(=O)OC(C)(C)C`, the IC50 stood at 3680 nM.

`C[C@H](CNC(=O)c1ccc(-c2ccccc2C#N)nc1NCCc1cccc(F)c1)N(C)C(=O)CCCN`: the IC50 is 710 nM.

As for `C[C@H](CNC(=O)c1ccc(-c2ccccc2C#N)nc1NCCc1cccc(F)c1)N(C)C(=O)CNC(=O)OC(C)(C)C`, the IC50 was determined as 5920 nM.

With `C[C@H](CNC(=O)c1ccc(-c2ccccc2C#N)nc1NCCc1cccc(F)c1)NC(=O)CCCN`, the IC50 was found to be 204 nM.

For `C[C@H](CNC(=O)c1ccc(-c2ccccc2C#N)nc1NCCc1cccc(F)c1)NC(=O)CN`, the IC50 came out at 41 nM.

`C[C@H](CNC(=O)c1ccc(-c2ccccc2C#N)nc1NCCc1cccc(F)c1)NC(=O)CCCNC(=O)OC(C)(C)C`: the concentration for half-maximal inhibition (IC50) worked out at 49 nM.

On to `C[C@H](CNC(=O)c1ccc(-c2ccccc2C#N)nc1NCCc1cccc(F)c1)N(C)C(=O)CN`, for which the IC50 was 152 nM.

On to `C[C@@H](CNC(=O)c1cc(F)c(-c2cnn(C)c2)nc1NCCc1cccc(F)c1)NC(=O)CN`, for which the IC50 was found to be 1800 nM.

Take `C[C@@H](CNC(=O)c1ccc(-c2ccccc2C#N)nc1NCCc1cccc(F)c1)N(C)C(=O)CCCN`: the 50% inhibitory concentration (IC50) turned out to be 6830 nM.

On to `C[C@@H](CNC(=O)c1ccc(-c2ccccc2C#N)nc1NCCc1cccc(F)c1)NC(=O)CCCNC(=O)OC(C)(C)C`, for which the IC50 was found to be 2020 nM.

`C[C@@H](CNC(=O)c1ccc(-c2ccccc2C#N)nc1NCCc1cccc(F)c1)NC(=O)CN`: the IC50 amounted to 1460 nM.

As to `C[C@@H](CNC(=O)c1ccc(-c2ccccc2C#N)nc1NCCc1cccc(F)c1)N(C)C(=O)CN`, the IC50 was 3250 nM.

Regarding `C[C@@H](CNC(=O)c1ccc(-c2ccccc2C#N)nc1NCCc1cccc(F)c1)NC(=O)CCN`, the 50% inhibitory concentration (IC50) was determined as 3560 nM.

`O=C(NCc1cccnc1Cl)c1ccc(-c2cn[nH]c2)nc1NCCc1cccc(F)c1`: the IC50 is 46 nM.

`N#Cc1ccccc1-c1ccc(C(=O)NC[C@H]2CCCN2CCCN)c(NCCc2cccc(F)c2)n1`: the IC50 worked out at 1390 nM.

For the compound `N#Cc1ccccc1-c1ccc(C(=O)NC[C@H]2CCCN2C(=O)CCCN)c(NCCC2CCOCC2)n1`, the IC50 is 8770 nM.

`N#Cc1ccccc1-c1ccc(C(=O)NC[C@H]2CCCN2C(=O)CCCN)c(NCCC2CCCCO2)n1` (stereo partly drawn): the IC50 turned out to be 2040 nM.

In the case of `C[N+]1(C)CCC[C@@H]1CNC(=O)c1ccc(-c2ccccc2C#N)nc1NCCc1cccc(F)c1`, the IC50 was determined as 2050 nM.

For `N#Cc1ccccc1-c1ccc(C(=O)NC[C@H]2O[C@@H](O)[C@H](O)[C@@H](O)[C@@H]2O)c(NCCc2cccc(F)c2)n1`, the concentration for half-maximal inhibition (IC50) was found to be 5540 nM.

Consider `CC(NC(=O)c1ccc(-c2ccccc2C#N)nc1NCCc1cccc(F)c1)C(N)=O` (stereo not drawn), for which the IC50 amounted to 564 nM.

Turning to `N#Cc1ccccc1CCNc1nc(-c2ccccc2)ccc1C(=O)NCc1cccnc1`, the IC50 was found to be 260 nM.

Turning to `O=C(NCc1cccnc1)c1ccc(-c2ccccc2)nc1NCCc1ccc2c(c1)OCO2`, the IC50 amounted to 28300 nM.

For the compound `Cn1cc(-c2ccc(C(=O)NCc3cccnc3)c(NCCc3cccc(F)c3)n2)cn1`, the concentration for half-maximal inhibition (IC50) came to 40 nM.

Consider `[N-]=[N+]=NCc1cc(C(=O)NCc2cccnc2)c(NCCc2cccc(F)c2)nc1-c1ccccc1`, for which the IC50 stood at 428 nM.

Take `CC(C)(C)OC(=O)NCc1cccc(CNC(=O)c2ccc(-c3ccccc3C#N)nc2NCCc2cccc(F)c2)n1`: the IC50 amounted to 1190 nM.

`CN1CC(=O)N[C@@H](CNC(=O)c2ccc(-c3ccccc3C#N)nc2NCCc2cccc(F)c2)C1` (stereo in doubt) [(6-(2-cyanophenyl)-2-{[2-(3-fluorophenyl)ethyl]amino}(3-pyridyl))-N-[(4-methyl-6-oxopiperazin-2-yl)methyl]carboxamide]: the IC50 is 37 nM.

Take `CS(=O)(=O)N1CC(=O)N[C@@H](CNC(=O)c2ccc(-c3ccccc3C#N)nc2NCCc2cccc(F)c2)C1` (stereo in doubt) [(6-(2-cyanophenyl)-2-{[2-(3-fluorophenyl)ethyl]amino}(3-pyridyl))-N-{[4-(methylsulfonyl)-6-oxopiperazin-2-yl]methyl}carboxamide]: the IC50 turned out to be 2560 nM.

For the compound `CC(C)(C)OC(=O)NCCN1CCC[C@H](NC(=O)c2ccc(-c3ccccc3C#N)nc2NCCc2cccc(F)c2)C1=O` (stereo in doubt) [N-(1-{2-[(tert-butoxy)carbonylamino]ethyl}-2-oxo(3-piperidyl))(6-(2-cyanophenyl)-2-{[2-(3-fluorophenyl)ethyl]amino}(3-pyridyl))carboxamide], the IC50 came to 15300 nM.

In the case of `N#Cc1ccccc1-c1ccc(C(=O)N[C@H]2CCCN(CCN)C2=O)c(NCCc2cccc(F)c2)n1` (stereo in doubt) [N-[1-(2-aminoethyl)-2-oxo(3-piperidyl)](6-(2-cyanophenyl)-2-{[2-(3-fluorophenyl)ethyl]amino}(3-pyridyl))carboxamide], the IC50 worked out at 18500 nM.

As for `N#Cc1ccccc1-c1ccc(C(=O)NCCN2CCC[C@H](N)C2=O)c(NCCc2cccc(F)c2)n1` (stereo in doubt) [N-[2-(3-amino-2-oxopiperidyl)ethyl](6-(2-cyanophenyl)-2-{[2-(3-fluorophenyl)ethyl]amino}(3-pyridyl))carboxamide], the half-inhibitory concentration (IC50) was determined as 2950 nM.
